Reference: patent publication US20090304661A1, “Method And Composition For Proctecting Neuronal Tissue From Damage Induced By Elevated Glutamate Levels” (Yeda Research And Development Co. Ltd. at the Weizmann …, priority 2006, published 2009)

Tests used:
blood Glu levels [1] = assay: Blood Glu levels in rats after stress hormones, agonists and antagonists; type: in vivo, rat; settings: for effect on blood Glu levels: cortisol 25 mg/kg intraperitoneally, noradrenaline intravenously 30 min at 2 μg/100 g/min
Experimental: FIGS. 2A-B are line graphs showing the effects of stress hormones and stress on blood glutamate and glucose levels. A: Cortisol (25 mg/kg) was injected intraperitoneally (triangles). Noradrenaline was infused intravenously for 30 min at 2 μg/100 g/min and 1 ml/100 g (rectangles). Adrenaline was infused intravenously for 30 min at […] and 1 ml/100 g (diamonds). The data presented are normalized to the respective basal blood values and shown as mean±standard deviation (n=3). B: Effects of an intracranial insertion of a microdialysis probe (without any fluid perfusion) on blood Glu (diamonds) and glucose (rectangles) levels. The data presented are normalized to the respective basal blood values and shown as mean±standard deviation (n=4);
The rats NSS were measured after 24 and 48 h The results are presented as mean±standard deviation; and
FIG. 8 is a graph showing the effect of an alpha 1 agonist, phenylephrine on blood Glu levels. Phenylephrine was infused intravenously for 30 min into rats (n=4) at a rate 0.25 mg/0.5 ml/100 g/30 min and the levels of blood Glu were determined at time=0 and every subsequent 30 min until 120 min. The results are presented as mean±standard deviation.
Glu spectrofluorometric assay—Glu concentration was measured using the fluorometric method of Graham and Aprison. A 20 μl aliquot from microdialysate was added to 480 μl HG buffer containing 15 U of Glu dehydrogenase in 0.2 mM NAD, 0.3M glycine, 0.25 M hydrazine hydrate adjusted to pH 8.6 with 1N H2SO4. After incubation for 30-45 min at room temperature, the fluorescence was measured at 460 nm with excitation at 350 nm. A Glu standard curve was established with concentrations ranging from 0-6 μM. All determinations were done at least in duplicates. The results are expressed as mean.+−SD.
Determination of Blood/plasma Glu—Whole blood (200 μl aliquot) were deproteinized by adding an equal volume of ice-cold 1 M perchloric acid (PCA) and then centrifuging at 10000×g for 10 min at 4° C. The pellet was discarded and supernatant collected, adjusted to pH 7.2 with 2M K2CO3 and, if needed, stored at −80° C. for later analysis using the above-described assay.
The rats NSS were measured after 24 and 48 h.
Phenylephrine was infused intravenously for 30 min into rats (n=4) at a rate 0.25 mg/0.5 ml/100 g/30 min and the levels of blood Glu were determined at time=0 and every subsequent 30 min until 120 min.

[2] = test system: Glu in rat brain striatum; assay: Dual-probe microdialysis of Glu in rat brain striatum; type: in vivo
Experimental: Glu (1M) was continuously perfused at a rate of 2 μl/min from the delivery probe while perfusing artificial CSF at the same rate of 2 μl/min through the recovery probe for the entire duration of the experiments. […] Microdialysis of 1M Glu along with an intravenous Glu injection performed at t=100 min for 30 min (30 μmoles/min/100 g).
Artificial CSF was perfused at a rate of 2 μl/min through the two probes for a duration of 60 min. A 1 M solution of glutamate was then perfused through the delivery probe, at a rate of 2 μl/min for the entire duration of the experiment while perfusing artificial CSF at the same rate of 2 μl/min through a recovery probe, located at 1 mm from the delivery probe. Aliqouots of 40 μl were collected from the recovery probe every 20 min. The recovered Glu was measured using a spectrofluorometric assay (see below).
A 20 μl aliquot from microdialysate was added to 480 μl HG buffer containing 15 U of Glu dehydrogenase in 0.2 mM NAD, 0.3M glycine, 0.25 M hydrazine hydrate adjusted to pH 8.6 with 1N H2SO4. […] A Glu standard curve was established with concentrations ranging from 0-6 μM. All determinations were done at least in duplicates. The results are expressed as mean.+−SD.
The dual-probe brain microdialysis was used and perfused through the delivery probe inserted in the striatum of anesthetized rats a Glu solution while simultaneously perfusing artificial CSF through a recovery probe, located at 1 mm distance.

[3] = biological target: E. coli GOT (GenBank Accession No. D90731.1) (Escherichia coli, UniProt P00509); settings: cited from earlier work
Sequence of E. coli GOT (GenBank Accession No. D90731.1) (P00509 whole entry): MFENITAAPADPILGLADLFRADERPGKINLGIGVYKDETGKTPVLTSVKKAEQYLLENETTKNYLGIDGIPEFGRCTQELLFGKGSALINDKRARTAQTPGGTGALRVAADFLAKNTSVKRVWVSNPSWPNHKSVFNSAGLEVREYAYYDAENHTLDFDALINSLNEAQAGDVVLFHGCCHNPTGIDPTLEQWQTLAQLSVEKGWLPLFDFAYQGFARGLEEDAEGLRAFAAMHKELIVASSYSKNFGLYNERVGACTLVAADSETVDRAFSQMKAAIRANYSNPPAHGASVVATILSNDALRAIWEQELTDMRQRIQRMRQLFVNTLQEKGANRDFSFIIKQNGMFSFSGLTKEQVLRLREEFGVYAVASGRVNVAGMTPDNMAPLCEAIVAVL

[4] = test system: traumatic brain injury (TBI); assay: Neurological severity score (NSS) after traumatic brain injury; type: in vivo, rat; settings: for spontaneous partial recovery of rats submitted to TBI: summary statement
Experimental: FIGS. 3A-C are graphs showing the effects of stress on the spontaneous recovery from traumatic brain injury. FIG. 3A illustrates TBI protocol and times of neurological severity score (NSS) assessment and removal of blood samples (asterisks) FIG. 4B is a histogram showing the effects of propranolol (10 mg/kg i.p) on the spontaneous recovery of rats submitted to TBI. Propranolol was injected 60 min before the infliction of TBI. The neurological severity scores were measured at 1 and 24 hours following TBI. The scores shown on the ordinate correspond to NSS averages+/−standard error of the mean. Control (n=33); propranolol (n=8). […] Propranolol was injected at a dose of 10 mg/kg i.p. 60 min before the infliction of TBI.
Animal anesthesia and well being—Experiments were conducted according to the recommendations of the Declarations of Helsinki and Tokyo and to the Guidelines for the Use of Experimental Animals of the European Community. The experiments were approved by the Animal Care Committees of Ben-Gurion University of the Negev and of the Weizmann Institute. Spontaneously breathing male Sprague Dawley rats weighing 200-300 g were anesthetized with a mixture of isoflurane (initial inspired concentration 2%) in 100% oxygen (1l/min). The rectal temperature was maintained at 37° C. using a heating pad and anesthesia was considered as sufficient for surgery when tail reflex was abolished. Catherization of the tail vein was carried out with a BD Neoflon 24 g catheter for allowing fluid infusion. Catherization of the tail artery was performed to allow blood sampling and determination of blood pressure and heart rate.

blood Glu levels [5] = assay: Blood Glu levels following traumatic brain injury; type: in vivo, rat
Experimental: FIGS. 3A-C are graphs showing the effects of stress on the spontaneous recovery from traumatic brain injury. FIG. 3A illustrates TBI protocol and times of neurological severity score (NSS) assessment and removal of blood samples (asterisks) […] is a histogram showing the effects of propranolol (10 mg/kg i.p) on the spontaneous recovery of rats submitted to TBI. Propranolol was injected 60 min before the infliction of TBI. The neurological severity scores were measured at 1 and 24 hours following TBI. The scores shown on the ordinate correspond to NSS averages+/−standard error of the mean. Control (n=33); propranolol (n=8). Bonferroni's multiple comparison tests: saline 1 h vs saline 24 h p<0.001; saline 1 h vs propranolol pretreatment p>0.05; saline 1 h vs propranolol post-TBI p<0.001. FIG. 3C is a graph showing the effects of propranolol on the blood Glu (rectangles) and glucose (triangles) levels of rats submitted to TBI (n=8). Propranolol was injected at a dose of 10 mg/kg i.p. 60 min before the infliction of TBI. Glu and glucose levels were measured at 1, 60, 120 and 150 min following TBI. Glu levels were normalized to the value at t=1 min.;
FIGS. 4A-C are graphs depicting the effects of a blood Glu scavenger and of Glu on the recovery from TBI. Rats were injected intravenously for a total duration of 30 min (as in FIG. 3A) either with saline (30 μl/min/100 g), OxAc (30 μmoles/min/100 g) or OxAc+Glu (30 μmoles/min/100 g each). Twenty four and forty eight hours later, rats were submitted to various tests to establish the NSS. The scores shown above each column correspond to NSS averages with bars indicating the standard error of the mean. FIG. 4A—The groups from left to right are as follows: control saline (n=33) at 1 hour and 24 h; OxAc (n=32); Glu (n=32); OxAc+Glu (n=17) at 24 h and 48 h; One way ANOVA and Bonferroni multiple comparison tests: At 24 h: saline versus OxAc: p<0.05; saline versus Glu: p<0.01; Glu versus OxAc: p<0.001; saline versus OxAc+Glu: p>0.05. […] Glu levels are expressed as the percent of the basal Glu levels measured before TBI. […] Paired t test: 0 versus 60 min saline p=5.10^−4; 0 versus 60 min OxAc p=0.10^−4; 60 min versus 75 min saline: p=0.59; 60 min versus 75 min OxAc: p=3.10^−3; 75 min versus 90 min saline: p=0.89; 75 min versus 90 min OxAc: p=2.10^−4; C: Time course of the recovery from TBI in saline (n=7) and OxAc-treated (n=7) rats as monitored by NSS values presented here as mean±standard deviation. […]
Glu spectrofluorometric assay—Glu concentration was measured using the fluorometric method of Graham and Aprison. […] After incubation for 30-45 min at room temperature, the fluorescence was measured at 460 nm with excitation at 350 nm. […] The results are expressed as mean.+−SD. […]

[6] = Blood osmolality and Na content before and after treatment; type: in vivo, rat; settings: OxAc group
Experimental: This beneficial effect was not observed in the other groups for which the treatment includes the intravenous administration of Glu (data not shown). Since OxAc could act on brain edema as an osmotic agent, both the blood osmolality and Na content were measured before and after the 30 min-long treatments with OxAc or saline. There was no change in the saline group (303±3.5 mOsm (pre-treatment) vs 299±3 mOsm (post-treatment); Na: 140±1 meq/l vs 141±0.8 meq/l) but a very significant increase in the OxAc-group: (301±5 mOsm vs 338±8 mOsm; Na: 139±1 meq/l vs 164±3.4 meq/l). The hypernatriema and hyperosmolarity in the OxAc-treated rats can be accounted by the fact that OxAc is administered together with 2 Na equivalents. To determine that the NSS improvement and edema reduction in the OxAc-treated rats were not due to an osmotic “therapy”, rats were submitted after TBI to a hypertonic (3% NaCl) saline treatment. As the respective NSS values obtained at 60 min and 24 h post TBI were 15.6±3.6 and 12.4±5.3 (n=7; p=0.16), it was concluded that the beneficial effects of OxAc are not the result of an osmotic therapy.

blood glucose levels = assay: Blood glucose levels following traumatic brain injury; type: in vivo, rat; settings: propranolol 10 mg/kg i.p. 60 min before TBI
Experimental: FIGS. 3A-C are graphs showing the effects of stress on the spontaneous recovery from traumatic brain injury. FIG. 3A illustrates TBI protocol and times of neurological severity score (NSS) assessment and removal of blood samples (asterisks) […] is a histogram showing the effects of propranolol (10 mg/kg i.p) on the spontaneous recovery of rats submitted to TBI. Propranolol was injected 60 min before the infliction of TBI. The neurological severity scores were measured at 1 and 24 hours following TBI. The scores shown on the ordinate correspond to NSS averages+/−standard error of the mean. Control (n=33); propranolol (n=8). […] Glu and glucose levels were measured at 1, 60, 120 and 150 min following TBI. […]
Animal anesthesia and well being—Experiments were conducted according to the recommendations of the Declarations of Helsinki and Tokyo and to the Guidelines for the Use of Experimental Animals of the European Community. […] Blood samples were analyzed for pH, pO2, pCO2, HCO3^−3. Glucose levels were measured with Accu-Chek sensor comfort. […] Following TBI, all rats were laid on their left side in order to recover from anesthesia and to check righting reflex and recovery time as part of the assessment of NSS which was evaluated 1 h after TBI (see below).

[7] = baseline before 30 min-long treatment

COCCc1ccc(OCC(O)CNC(C)C)cc1 (stereo not drawn) [metaprolol]
effect on the reduction of blood Glu levels (blood Glu levels [1]; metaprolol 15 mg/kg, naive rats): strong effect | reduction of in vivo rat blood glutamate (blood Glu levels [1]; metaprolol 15 mg/kg, naive rats, followed to 120 min): 40%

NC[C@H](O)c1ccc(O)c(O)c1 [noradrenaline]
effect on blood Glu levels (blood Glu levels [1]): neither cortisol nor noradrenaline affected blood Glu levels

N[C@@H](CCC(=O)O)C(=O)O [Glu, L-glutamic acid]
amounts of Glu reaching the recovery probe ([2]; 1M Glu perfused, intravenous Glu at t=100 min for 30 min, 30 μmoles/min/100 g): significantly more Glu reaches the recovery probe | affinity of E. coli GOT for the substance [3]: about 8 mM | recovery from TBI (NSS at 24 h and 48 h) ([4]; intravenous 30 min, 30 μmoles/min/100 g (each), after TBI): recovered the least | spontaneous partial recovery of rats submitted to TBI [4]: prevented

O=C(O)CC(=O)C(=O)O [OxAc, oxaloacetate]
blood Glu levels after TBI (blood Glu levels [5]; intravenous OxAc 30 μmoles/min/100 g, 60-90 min after TBI, relative to basal Glu before TBI): 40% | duration of decrease of blood Glu after TBI (blood Glu levels [5]; stress- and OxAc-induced decreases): at least 90 min | further reduction of the amounts of Glu reaching the recovery probe ([2]; 1M Glu perfused, intravenous OxAc at t=110 min for 30 min, 30 μmoles/min/100 g): up to 50 % of the peak value | blood Na content, post-treatment ([6]; after 30 min-long treatment): 164±3.4 meq/l | blood osmolality, post-treatment ([6]; after 30 min-long treatment): 338±8 mOsm | blood Na content, pre-treatment [6, 7]: 139±1 meq/l | blood osmolality, pre-treatment [6, 7]: 301±5 mOsm

CNC[C@H](O)c1cccc(O)c1 [phenylephrine]
reduction of blood basal glutamate levels (blood Glu levels [1]; injected intravenously at 0.1 mg/100 gr rat body-weight/30 min): 40%

CC(C)NCC(O)COc1cccc2ccccc12 (stereo not drawn) [propranolol]
stress-induced changes of blood Glu levels (blood Glu levels [5]; propranolol 10 mg/kg i.p. 60 min before TBI): prevented for at least 150 min the stress-induced changes of blood Glu and glucose levels | effect on blood glutamate levels (blood Glu levels [5]; propranolol, rats submitted to TBI (FIGS. 3A-C)): practically no effect | effect on Glu dual-probe microdialysis profile ([2]; propranolol pretreatment, data not shown): did not affect | spontaneous NSS improvement at 24 h ([4]; propranolol 10 mg/kg i.p. 1 hour before TBI): prevented the spontaneous NSS improvement | NSS improvement ([4]; propranolol administration delayed by 60 min after TBI): caused the same NSS improvement as that found after saline treatment | spontaneous partial recovery of rats submitted to TBI [4]: prevented | stress-induced changes of blood glucose levels (blood glucose levels): prevented for at least 150 min the stress-induced changes of blood Glu and glucose levels

O=C(O)CCC(=O)C(=O)O [2-ketoglutarate]
affinity of E. coli GOT for the substance [3]: about 0.2 mM

C[C@]12CCC(=O)C=C1CC[C@@H]1[C@@H]2[C@@H](O)C[C@@]2(C)[C@H]1CC[C@]2(O)C(=O)CO [cortisol]
effect on blood Glu levels (blood Glu levels [1]): neither cortisol nor noradrenaline affected blood Glu levels
